Data as given in patent US20130310256A1, “HERBICIDAL COMPOSITIONS COMPRISING 4-AMINO-3-CHLORO-5-FLUORO-6-(4-CHLORO-2-FLUORO-3-METHOXYPHENYL) PYRIDINE-2-CARBOXYLIC ACID OR A DERIVATIVE THEREOF AND VLCFA AND LIPID SYNTHESIS INHIBITING HERBICIDES” (DOW AGROSCIENCES LLC, priority 2008, published 2013).

What was measured:
[1] = test system: CYPES; experiment: Example I: postemergence foliar-applied weed control, greenhouse; type: in vivo, Cyperus esculentus L. (yellow nutsedge); details: 275 gai/ha
[2] = test system: ECHCO; experiment: as above; type: in vivo, Echinochloa colona (L.) Link (junglerice); details: 275 gai/ha; foliar
In short: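 Plants grown in loam/sandy loam–calcareous grit soil (80:20) in greenhouse, 14 hr photoperiod, about 29° C. day/26° C. night, treated postemergence at first to fourth true leaf stage. Foliar spray at 187 L/ha with 1.25% (v/v) crop oil concentrate; Compound A dosed on acid equivalent basis, partners on active ingredient basis.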

[3] = test system: XANST; experiment: Example IV: pre-emergence soil-applied weed control, greenhouse; type: in vivo, Xanthium strumarium L. (common cocklebur); details: 29 DAA
Description: Seeds or nutlets of the desired test plant species were planted in a soil matrix prepared by mixing a loam soil (32 percent silt, 23 percent clay, and 45 percent sand, with a pH of about 6.5 and an organic matter content of about 1.9 percent) and calcareous grit in an 80 to 20 ratio. The soil matrix was contained in plastic pots with a volume of 1 quart and a surface area of 83.6 square centimeters (cm^2).
Treatments consisted of the benzyl ester of 4-amino-3-chloro-5-fluoro-6-(4-chloro-2-fluoro-3-methoxy-phenyl)pyridine-2-carboxylic acid (compound A) formulated as an SC (suspension concentrate) and various herbicidal components alone and in combination. Forms of compound A were applied on an acid equivalent basis.
Other herbicidal components were applied on an active ingredient basis and included very long chain fatty acid (VLCFA) synthesis-inhibiting and fatty acid/lipid synthesis-inhibiting herbicides alachlor (technical grade material), dimethenamid-P formulated as Outlook®, and S-metolachlor formulated as Dual® II Magnum.
Treatment requirements were calculated based upon the rates being tested, the concentration of active ingredient or acid equivalent in the formulation, and a 12 mL application volume at a rate of 187 L/ha.
For treatments comprised of formulated compounds, measured amounts of compounds were placed individually in 25 mL glass vials and diluted in a volume of 1.25% (v/v) Agri-Dex® crop oil concentrate (COC) to obtain 12× stock solutions. […] Application solutions were prepared by adding an appropriate amount of each stock solution (e.g., 1 mL) and diluted to the appropriate final concentrations with the addition of 10 mL of an aqueous mixture of 1.25% (v/v) COC so that the final spray solutions contained 1.25% (v/v) COC.
For treatments comprised of technical compounds, weighed amounts can be placed individually in 25 mL glass vials and dissolved in a volume of 97:3 (v/v) acetone/DMSO to obtain 12× stock solutions. […] Application solutions can be prepared by adding an appropriate amount of each stock solution (e.g., 1 mL) and diluted to the appropriate final concentrations with the addition of 10 mL of an aqueous mixture of 1.5% (v/v) COC so that the final spray solutions contain 1.25% (v/v) COC. […]
For treatments comprised of formulated and technical compounds, weighed amounts of the technical materials were placed individually in 25 mL glass vials and dissolved in a volume of 97:3 (v/v) acetone/DMSO to obtain 12× stock solutions, and measured amounts of the formulated compounds were placed individually in 25 mL glass vials and diluted in a volume of 1.5% (v/v) COC or water to obtain 12× stock solutions. […]

COC[C@H](C)N(C(=O)CCl)c1c(C)csc1C [Dimethenamid-P, (S) 2-chloro-N-(2,4-dimethyl-3-thienyl)-N-(2-methoxy-1-methylethyl)acetamide]
Visual Weed Control (%) - 20 DAA CYPES Obs [1]: 0%
Visual Weed Control (%) - 20 DAA ECHCO Obs [2]: 70%
Visual Weed Control XANST Obs ([3]; 410 gai/ha): 23%
Visual Weed Control XANST Obs ([3]; 820 gai/ha): 30%
Visual Weed Control XANST Obs ([3]; 1640 gai/ha): 50%
